These results are taken from US20260207602A1, “EGFR INHIBITORS” (Blueprint Medicines Corporation, priority 2022, published 2026).

One assay has as its target T1, EGFR L858R (Homo sapiens, UniProt P00533, L858R).
T1 construct: purchased SignalChem E10-122BG
Nature of the assay: Biochemical EGFR inhibition assay (Caliper mobility shift), EGFR L858R. As to conditions: biochemical Caliper mobility shift assay, EGFR L858R enzyme; read-out: Enz EGFR L858R IC50. The procedure, abridged: (§1)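 Mobility-shift readout: phosphorylated and unphosphorylated 5-FAM peptide (2.5 µM) separated electrophoretically. Reactions at room temperature (25 °C), 1.0 mM ATP or ATP Km, HEPES pH 7.5 with MgCl2, Brij-35, DTT and 1.0% DMSO; terminated at 10–20% turnover with 35 mM EDTA. Apparent IC50 fitted.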

In the next assay the target is T2, EGFR (d746-750) (Homo sapiens, UniProt P00533, DEL746-750).
T2 construct: purchased SignalChem E10-122JG
Nature of the assay: Biochemical EGFR inhibition assay (Caliper mobility shift), EGFR (d746-750). The conditions noted are these: biochemical Caliper mobility shift assay, EGFR Exon 19-del enzyme; read-out: Enz EGFR Exon 19-del IC50. The essentials: as §1

Assay [1] has as its target intracellular phosphorylation of EGFR (Tyr1068) in PC-9 cells (Homo sapiens, UniProt P00533, DEL746-750). Nature of the assay: PC-9 pEGFR AlphaLISA assay. Format: cell-based. As to conditions: 4 hours incubation, read-out: Phos EGFR PC9 IC50. The procedure, abridged: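 PC-9 cells (EGFR del746-750) in phenol-free DMEM/10% FBS, adhered overnight, then exposed to 10-point 4-fold compound dilutions for 4 h at 37 °C. Lysates assayed for pEGFR Tyr1068 by AlphaLISA SureFire Ultra; IC50 from percent pEGFR inhibition vs log concentration.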
A general note: Alpha assays give light when donor and acceptor beads are brought close together.

Each structure is given as a SMILES string.

T2 sequence (P00533 with tags, fused parts or gaps DEL746-750 limits assumed): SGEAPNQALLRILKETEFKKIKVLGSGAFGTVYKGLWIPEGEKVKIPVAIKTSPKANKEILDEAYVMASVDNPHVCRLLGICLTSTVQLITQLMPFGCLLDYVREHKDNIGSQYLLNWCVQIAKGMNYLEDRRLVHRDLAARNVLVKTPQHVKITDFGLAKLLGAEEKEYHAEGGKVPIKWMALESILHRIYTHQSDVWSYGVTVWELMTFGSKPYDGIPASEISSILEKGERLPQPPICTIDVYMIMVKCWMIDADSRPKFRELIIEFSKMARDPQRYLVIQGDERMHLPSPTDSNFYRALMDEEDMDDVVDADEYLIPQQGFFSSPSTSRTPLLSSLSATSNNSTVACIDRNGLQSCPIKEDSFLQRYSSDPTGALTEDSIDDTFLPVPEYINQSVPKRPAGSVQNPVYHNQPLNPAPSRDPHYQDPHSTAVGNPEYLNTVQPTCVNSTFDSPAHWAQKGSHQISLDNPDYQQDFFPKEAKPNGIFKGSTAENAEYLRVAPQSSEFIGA
intracellular phosphorylation of EGFR (Tyr1068) in PC-9 cells, sequence (P00533 with tags, fused parts or gaps DEL746-750): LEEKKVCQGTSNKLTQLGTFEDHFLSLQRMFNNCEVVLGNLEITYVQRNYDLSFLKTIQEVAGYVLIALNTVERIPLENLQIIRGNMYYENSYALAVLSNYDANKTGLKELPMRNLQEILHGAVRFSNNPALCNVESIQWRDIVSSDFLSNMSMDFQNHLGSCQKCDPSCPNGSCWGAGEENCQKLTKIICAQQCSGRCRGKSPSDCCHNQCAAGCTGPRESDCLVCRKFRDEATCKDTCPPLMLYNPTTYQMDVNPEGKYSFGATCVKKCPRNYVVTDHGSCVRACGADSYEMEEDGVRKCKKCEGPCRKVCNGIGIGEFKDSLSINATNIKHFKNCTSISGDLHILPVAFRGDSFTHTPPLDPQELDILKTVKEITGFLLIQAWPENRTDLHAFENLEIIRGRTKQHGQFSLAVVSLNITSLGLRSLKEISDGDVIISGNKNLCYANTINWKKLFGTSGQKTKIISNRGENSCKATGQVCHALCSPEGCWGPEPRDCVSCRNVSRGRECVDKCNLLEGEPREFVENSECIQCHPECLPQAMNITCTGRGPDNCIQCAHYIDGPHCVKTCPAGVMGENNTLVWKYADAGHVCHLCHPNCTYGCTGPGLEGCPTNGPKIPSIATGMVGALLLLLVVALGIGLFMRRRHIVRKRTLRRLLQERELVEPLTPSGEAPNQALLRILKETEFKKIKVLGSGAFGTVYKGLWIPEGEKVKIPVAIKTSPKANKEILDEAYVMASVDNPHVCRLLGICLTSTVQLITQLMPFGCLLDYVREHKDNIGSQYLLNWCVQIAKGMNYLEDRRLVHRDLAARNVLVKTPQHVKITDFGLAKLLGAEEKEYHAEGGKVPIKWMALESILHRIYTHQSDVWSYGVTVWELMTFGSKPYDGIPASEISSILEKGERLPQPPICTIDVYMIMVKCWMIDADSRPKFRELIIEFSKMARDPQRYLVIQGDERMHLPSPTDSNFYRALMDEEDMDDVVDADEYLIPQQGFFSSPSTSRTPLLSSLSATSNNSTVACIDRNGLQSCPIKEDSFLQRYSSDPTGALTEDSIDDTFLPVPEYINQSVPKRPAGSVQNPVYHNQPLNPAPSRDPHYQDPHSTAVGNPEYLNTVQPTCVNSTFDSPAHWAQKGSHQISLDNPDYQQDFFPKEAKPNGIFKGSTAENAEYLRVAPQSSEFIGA
T1 sequence (P00533 25-1210 L858R): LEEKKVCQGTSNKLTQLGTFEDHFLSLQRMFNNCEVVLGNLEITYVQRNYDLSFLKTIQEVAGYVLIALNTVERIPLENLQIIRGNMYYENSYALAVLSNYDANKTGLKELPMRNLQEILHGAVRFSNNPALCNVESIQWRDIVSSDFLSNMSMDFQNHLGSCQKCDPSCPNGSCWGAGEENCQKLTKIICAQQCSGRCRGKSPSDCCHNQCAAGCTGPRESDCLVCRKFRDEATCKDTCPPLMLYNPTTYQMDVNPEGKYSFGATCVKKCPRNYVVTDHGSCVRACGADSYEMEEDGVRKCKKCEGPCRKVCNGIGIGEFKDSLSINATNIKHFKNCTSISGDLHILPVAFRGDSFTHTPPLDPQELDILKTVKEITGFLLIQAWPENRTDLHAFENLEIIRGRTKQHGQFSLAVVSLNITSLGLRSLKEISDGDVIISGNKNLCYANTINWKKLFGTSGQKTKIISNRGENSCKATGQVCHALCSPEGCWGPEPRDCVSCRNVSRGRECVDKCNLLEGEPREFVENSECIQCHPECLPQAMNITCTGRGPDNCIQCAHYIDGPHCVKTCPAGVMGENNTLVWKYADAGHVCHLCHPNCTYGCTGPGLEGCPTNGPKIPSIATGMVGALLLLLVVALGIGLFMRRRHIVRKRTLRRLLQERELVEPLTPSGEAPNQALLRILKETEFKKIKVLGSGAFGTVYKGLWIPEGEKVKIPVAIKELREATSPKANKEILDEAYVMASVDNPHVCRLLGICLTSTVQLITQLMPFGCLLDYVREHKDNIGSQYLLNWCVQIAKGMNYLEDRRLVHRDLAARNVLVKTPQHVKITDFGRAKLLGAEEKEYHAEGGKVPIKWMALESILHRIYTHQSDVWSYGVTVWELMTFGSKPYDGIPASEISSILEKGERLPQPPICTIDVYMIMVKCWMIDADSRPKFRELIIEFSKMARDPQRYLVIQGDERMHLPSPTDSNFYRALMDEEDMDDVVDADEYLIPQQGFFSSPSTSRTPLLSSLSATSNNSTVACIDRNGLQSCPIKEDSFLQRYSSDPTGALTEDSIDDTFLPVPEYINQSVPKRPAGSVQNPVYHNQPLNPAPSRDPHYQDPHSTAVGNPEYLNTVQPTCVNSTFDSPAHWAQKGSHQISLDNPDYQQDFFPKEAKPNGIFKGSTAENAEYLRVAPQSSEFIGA

Take `C[C@@H](Oc1cc(N2CC3CC(C2)O3)cc2ncnc(Nc3ccc4ncsc4c3)c12)C1COC1` [Example 129, N-(7-(6-oxa-3-azabicyclo[3.1.1]heptan-3-yl)-5-((R)-1-(oxetan-3-yl)ethoxy)quinazolin-4-yl)benzo[d]thiazol-6-amine]: the IC50 (on EGFR L858R; on EGFR (d746-750); in assay [1]) was no more than 10 nM each time.
Consider `CCN1CCN(C(=O)Nc2cc3c(Nc4ccc5ncsc5c4F)ncnc3cc2-c2ccn(C)n2)[C@@H](C)C1` [Example 398, (S)-4-ethyl-N-(4-((7-fluorobenzo[d]thiazol-6-yl)amino)-7-(1-methyl-1H-pyrazol-3-yl)quinazolin-6-yl)-2-methylpiperazine-1-carboxamide], for which the IC50 (on EGFR L858R; at EGFR (d746-750); in assay [1]) was no more than 10 nM throughout.
With `COc1cn(C)nc1-c1cc(O[C@H](C)C2COC2)c2c(Nc3ccc4ncsc4c3F)ncnc2c1` (single isomer, unassigned) [Example 81], the results for the 50% inhibitory concentration (IC50) (on EGFR L858R; on EGFR (d746-750); in assay [1]) were no more than 10 nM, no more than 10 nM and 10.1 to 50 nM, respectively.
Consider `CN1CC(Oc2cc(-c3cnn(C)c3)cc3ncnc(Nc4ccc5ncsc5c4)c23)C1` [Example 27, N-(7-(1-methyl-1H-pyrazol-4-yl)-5-((1-methylazetidin-3-yl)oxy)quinazolin-4-yl)benzo[d]thiazol-6-amine], for which the half-inhibitory concentration (IC50) (on EGFR L858R; on EGFR (d746-750); in assay [1]) was 10.1 to 50 nM in each case.
Turning to `COc1cn(C)nc1-c1cc(O[C@H]2CCCN(C)C2)c2c(Nc3ccc4ncsc4c3)ncnc2c1` [Example 245, (S)-N-(7-(4-methoxy-1-methyl-1H-pyrazol-3-yl)-5-((1-methylpiperidin-3-yl)oxy)quinazolin-4-yl)benzo[d]thiazol-6-amine], the IC50 – broadly, the concentration at which inhibition is half-maximal – was no more than 10 nM on EGFR L858R, no more than 10 nM on EGFR (d746-750) and 10.1 to 50 nM in assay [1].
Consider `Cn1cc(-c2cc(OC3(C)CC3)c3c(Nc4ccc5ncsc5c4)ncnc3c2)cn1` [Example 57, N-(7-(1-methyl-1H-pyrazol-4-yl)-5-(1-methylcyclopropoxy)quinazolin-4-yl)benzo[d]thiazol-6-amine], for which the IC50 (at EGFR L858R; on EGFR (d746-750); in assay [1]) was no more than 10 nM in each case.
For `CN1CCC(Oc2cc(-c3cnn(C)c3)cc3ncnc(Nc4ccc5scnc5c4)c23)CC1` [Example A03, N-(7-(1-methyl-1H-pyrazol-4-yl)-5-((1-methylpiperidin-4-yl)oxy)quinazolin-4-yl)benzo[d]thiazol-5-amine], the IC50 on EGFR L858R was 10.1 to 50 nM; on EGFR (d746-750), no more than 10 nM; in assay [1], 10.1 to 50 nM.
Take `Cn1cc(-c2cc(O[C@@H]3CC[C@H]3O)c3c(Nc4ccc5ncsc5c4)ncnc3c2)cn1` (single isomer, unassigned) [Example A54]: the IC50 on EGFR L858R is no more than 10 nM; at EGFR (d746-750) it was no more than 10 nM; in assay [1], 10.1 to 50 nM.
`Cn1cc(-c2cc(OCC#N)c3c(Nc4ccc5ncsc5c4)ncnc3c2)cn1` [Example 407, 2-((4-(benzo[d]thiazol-6-ylamino)-7-(1-methyl-1H-pyrazol-4-yl)quinazolin-5-yl)oxy)acetonitrile]: the half-maximal inhibitory concentration (IC50) at EGFR L858R is no more than 10 nM; on EGFR (d746-750) it was no more than 10 nM; in assay [1], 10.1 to 50 nM.
For the compound `[2H]C([2H])([2H])Oc1cc(O[C@H](C)C2COC2)c2c(Nc3ccc4ncsc4c3F)ncnc2c1` [Example 130, (R)-7-fluoro-N-(7-(methoxy-d3)-5-(1-(oxetan-3-yl)ethoxy)quinazolin-4-yl)benzo[d]thiazol-6-amine], the IC50 (on EGFR L858R; on EGFR (d746-750); in assay [1]) was no more than 10 nM in each case.
Regarding `C[C@@H](Oc1cc(N2CCN(C)[C@@H](C)C2)cc2ncnc(Nc3ccc4ncsc4c3F)c12)C1COC1` (single isomer, unassigned) [Example 98], the half-inhibitory concentration (IC50) on EGFR L858R was no more than 10 nM; on EGFR (d746-750), no more than 10 nM; in assay [1] it was 10.1 to 50 nM.
For the compound `COc1nn(C)cc1-c1cc(O[C@H]2CN(C)C[C@H]2F)c2c(Nc3ccc4ncsc4c3)ncnc2c1` (single isomer, unassigned) [Example 374], the values for the IC50 (at EGFR L858R; at EGFR (d746-750); in assay [1]) were no more than 10 nM, no more than 10 nM and 10.1 to 50 nM, respectively.
Take `CN1CC[C@H](Oc2cc(-c3cnn(C)c3)cc3ncnc(Nc4ccc5ncsc5c4)c23)C1=O` (single isomer, unassigned) [Example 23]: the IC50 (on EGFR L858R; at EGFR (d746-750); in assay [1]) was no more than 10 nM in each case.
Regarding `C[C@H](CN(C)C)Oc1cc(N2CC3CC(C2)O3)cc2ncnc(Nc3ccc4ncsc4c3F)c12` [Example 176, N-(7-(6-oxa-3-azabicyclo[3.1.1]heptan-3-yl)-5-(((R)-1-(dimethylamino)propan-2-yl)oxy)quinazolin-4-yl)-7-fluorobenzo[d]thiazol-6-amine], the IC50 on EGFR L858R is 10.1 to 50 nM; at EGFR (d746-750), no more than 10 nM; in assay [1] it was no more than 10 nM.
In the case of `Cn1cc(-c2cc(OC3CCN(C4COC4)CC3)c3c(Nc4ccc5ncsc5c4F)ncnc3c2)cn1` [Example 315, 7-fluoro-N-(7-(1-methyl-1H-pyrazol-4-yl)-5-((1-(oxetan-3-yl)piperidin-4-yl)oxy)quinazolin-4-yl)benzo[d]thiazol-6-amine], the half-inhibitory concentration (IC50) (on EGFR L858R; at EGFR (d746-750); in assay [1]) was no more than 10 nM throughout.
Take `COc1cc(O[C@H](C)C2COC2)c2c(Nc3ccc4ncsc4c3)ncnc2c1` [Example 124, (R)-N-(7-methoxy-5-(1-(oxetan-3-yl)ethoxy)quinazolin-4-yl)benzo[d]thiazol-6-amine]: the IC50 is no more than 10 nM on EGFR L858R, no more than 10 nM on EGFR (d746-750) and 10.1 to 50 nM in assay [1].
As to `CN(C)C(=O)COc1cc(-c2cnn(C)c2)cc2ncnc(Nc3ccc4ncsc4c3F)c12` [Example 274, 2-((4-((7-fluorobenzo[d]thiazol-6-yl)amino)-7-(1-methyl-1H-pyrazol-4-yl)quinazolin-5-yl)oxy)-N,N-dimethylacetamide], the IC50 (at EGFR L858R; on EGFR (d746-750); in assay [1]) was no more than 10 nM each time.
`COc1nn(C)cc1-c1cc(OC2CCN(C3COC3)CC2)c2c(Nc3ccc4ncsc4c3)ncnc2c1` [Example 306, N-(7-(3-methoxy-1-methyl-1H-pyrazol-4-yl)-5-((1-(oxetan-3-yl)piperidin-4-yl)oxy)quinazolin-4-yl)benzo[d]thiazol-6-amine]: the IC50 (on EGFR L858R; at EGFR (d746-750); in assay [1]) was no more than 10 nM each time.
Consider `COc1cc2ncnc(Nc3ccc4ncsc4c3)c2cc1-c1cnn([C@H]2CCNC[C@@H]2F)c1` (racemic) [Example 168, trans-N-(6-(1-((3S,4S)-3-fluoropiperidin-4-yl)-1H-pyrazol-4-yl)-7-methoxyquinazolin-4-yl)benzo[d]thiazol-6-amine], for which the results for the concentration for half-maximal inhibition (IC50) (on EGFR L858R; on EGFR (d746-750); in assay [1]) were no more than 10 nM, no more than 10 nM and 10.1 to 50 nM, respectively.
For `CN1CC[C@H](Oc2cc(-c3cn(C)nc3OC(F)F)cc3ncnc(Nc4ccc5ncsc5c4)c23)[C@@H](F)C1` (single isomer, unassigned) [Example 369], the IC50 was 10.1 to 50 nM on EGFR L858R, no more than 10 nM at EGFR (d746-750) and 10.1 to 50 nM in assay [1].
Consider `Cn1cc(-c2cc(OC3CCN(C4COC4)CC3)c3c(Nc4ccc5ncsc5c4)ncnc3c2)cn1` [Example 318, N-(7-(1-methyl-1H-pyrazol-4-yl)-5-((1-(oxetan-3-yl)piperidin-4-yl)oxy)quinazolin-4-yl)benzo[d]thiazol-6-amine], for which the IC50 (on EGFR L858R; on EGFR (d746-750); in assay [1]) was no more than 10 nM throughout.
For the compound `Cn1cc(-c2cc(O[C@@H]3CC[C@@H](O)C3)c3c(Nc4ccc5ncsc5c4)ncnc3c2)cn1` [Example 410, (1R,3R)-3-((4-(benzo[d]thiazol-6-ylamino)-7-(1-methyl-1H-pyrazol-4-yl)quinazolin-5-yl)oxy)cyclopentan-1-ol], the IC50 (at EGFR L858R; on EGFR (d746-750); in assay [1]) was no more than 10 nM each time.
With `COc1nn(C)cc1-c1cc(O[C@@H]2CCN(C)C[C@@H]2F)c2c(Nc3ccc4ncsc4c3)ncnc2c1` [Example 362, N-(5-(((3S,4R)-3-fluoro-1-methylpiperidin-4-yl)oxy)-7-(3-methoxy-1-methyl-1H-pyrazol-4-yl)quinazolin-4-yl)benzo[d]thiazol-6-amine], the IC50 (on EGFR L858R; at EGFR (d746-750); in assay [1]) was no more than 10 nM throughout.
`COC[C@@H](C)Oc1cc(N2CCN(C)C[C@H]2C)cc2ncnc(Nc3ccc4ncsc4c3)c12` (single isomer, unassigned) [Example 211]: the IC50 was greater than 50.1 nM at EGFR L858R, 10.1 to 50 nM at EGFR (d746-750) and greater than 50.1 nM in assay [1].
Regarding `C[C@@H](Oc1cc(N2CCN(C)CC2)cc2ncnc(Nc3ccc4ncsc4c3F)c12)C1COC1` (single isomer, unassigned) [Example 94], the results for the IC50 (at EGFR L858R; at EGFR (d746-750); in assay [1]) were no more than 10 nM, no more than 10 nM and 10.1 to 50 nM, respectively.
On to `COCCN1CCN(c2cc(O[C@H](C)COC)c3c(Nc4ccc5ncsc5c4)ncnc3c2)CC1` [Example 201, (R)-N-(7-(4-(2-methoxyethyl)piperazin-1-yl)-5-((1-methoxypropan-2-yl)oxy)quinazolin-4-yl)benzo[d]thiazol-6-amine], for which the IC50 at EGFR L858R is no more than 10 nM; on EGFR (d746-750), no more than 10 nM; in assay [1], 10.1 to 50 nM.
